Measured values reported in ChEMBL document CHEMBL1159284, “A Short Enantioselective Synthesis of a Biologically Active Compound from Persea americana” (J Nat Prod, 1995).

Assays:
Mus musculus [1] = experiment: Toxicity in lactating mouse assessed as widespread mammary gland necrosis at 200 mg/kg; type: organism-based; parameters: dose 200 mg/kg; settings: in vivo
Mus musculus [2] = experiment: Toxicity in lactating mouse assessed as widespread mammary gland necrosis at 50 to 100 mg/kg; type: organism-based; parameters: dose 50-100 mg/kg; settings: in vivo

With `CCCCC/C=C\C/C=C\CCCCCCCC(=O)C[C@H](O)COC(C)=O` the Activity (Mus musculus [1]) was “Not Active”.
For `CCCCC/C=C\C/C=C\CCCCCCCC(=O)C[C@@H](O)COC(C)=O`, the Activity (Mus musculus [2]) was “Active”.
